This passage reports EC50 results from patent US8563714B2, “Bridged spiro [2.4] heptane derivatives as ALX receptor and/or FPRL2 agonists” (Actelion Pharmaceuticals Ltd., priority 2009, dated 2013).

In assay [1] the target is T1, human ALX receptor (Homo sapiens, UniProt P25090).
T1 construct: expressed in transfected cells; host or cells: HEK293 (HEK293-hALXR-Gα16)
T1 sequence (P25090 1-351): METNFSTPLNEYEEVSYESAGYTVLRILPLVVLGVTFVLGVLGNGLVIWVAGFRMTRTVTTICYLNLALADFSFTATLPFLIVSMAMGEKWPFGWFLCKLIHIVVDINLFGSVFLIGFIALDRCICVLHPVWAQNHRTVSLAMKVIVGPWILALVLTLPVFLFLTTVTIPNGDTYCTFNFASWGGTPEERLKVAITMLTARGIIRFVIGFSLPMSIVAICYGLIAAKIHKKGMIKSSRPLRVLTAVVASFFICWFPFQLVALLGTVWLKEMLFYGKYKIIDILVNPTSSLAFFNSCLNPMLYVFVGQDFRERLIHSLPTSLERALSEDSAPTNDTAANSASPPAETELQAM
Kind of assay: Intracellular calcium measurements (FLIPR), agonistic activity in HEK293-hALXR-Gα16 cells. In kind it is cell-based. To be noted: Fluo-4 calcium FLIPR, normalized to WKYMVm 10 nM. The method, boiled down: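 HEK293 cells expressing hALXR and Gα16 were loaded with 1 μM Fluo-4 AM and 20 mM HEPES for 60 min at 37°C, then exposed to serially diluted compound. FLIPR fluorescence was read at ex 488/em 540 nm. Baseline-subtracted peak responses were normalized to 10 nM WKYMVm.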

In assay [2] the target is T2, human FPRL2 (Homo sapiens, UniProt P25089).
T2 construct: expressed in transfected cells; host or cells: HEK293 (HEK293-hFPRL2-Gα16)
T2 sequence (P25089 1-353): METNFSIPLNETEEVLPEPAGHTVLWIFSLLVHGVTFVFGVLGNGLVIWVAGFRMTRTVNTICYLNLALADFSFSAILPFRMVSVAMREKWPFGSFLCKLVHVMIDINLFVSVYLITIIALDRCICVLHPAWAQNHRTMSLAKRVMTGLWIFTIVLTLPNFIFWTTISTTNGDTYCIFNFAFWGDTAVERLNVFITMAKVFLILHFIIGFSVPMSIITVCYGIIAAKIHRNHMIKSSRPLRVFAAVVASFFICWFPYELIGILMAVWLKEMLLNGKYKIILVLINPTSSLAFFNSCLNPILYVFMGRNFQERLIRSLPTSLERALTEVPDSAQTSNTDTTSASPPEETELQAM
Kind of assay: Intracellular calcium measurements (FLIPR), agonistic activity in HEK293-hFPRL2-Gα16 cells. In kind it is cell-based. Particulars: Fluo-4 calcium FLIPR, normalized to GLY14-Humanin 100 nM. The method, boiled down: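 Peak values after baseline subtraction are expressed relative to 100 nM Gly14-Humanin; compounds diluted in assay buffer from 10 mM DMSO stocks.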
For orientation: Calcium assays in cells follow changes in intracellular calcium, usually with a dye or a luminescent sensor.

What is called EC50 is the concentration needed to bring the measured effect to its halfway point.

Structures are written as SMILES. A value given as a limit tells only on which side of the number the result lay.

Consider `COCCC(=O)N(C)C[C@H]1[C@H](C(=O)Nc2ccc(Br)cc2)[C@@H]2C=C[C@H]1C21CC1` (racemic) [Example 175, (5R*)—N^5-(4-Bromo-phenyl)-(6R*)-6-{[N-(3-methoxy-propionyl)-N-methyl-amino]-methyl}-(4S*,7R*)-[4,7-ethenylene-spiro[2.4]heptane]-5-carboxamide], for which the EC50 in assay [1] stood at 155 nM; in assay [2], 7210 nM.

In the case of `CC(C)(C)OC(=O)N1CCCC1CNC(=O)C1C(C(=O)Nc2ccc(Br)cc2)C2C=CC1C21CC1` (mixture of isomers) [Example 79, (5R*)—N^5-(4-Bromophenyl)-(6R*)—N^6—(N-tert-butoxycarbonyl-pyrrolidin-2-yl-methyl)-(4S*,7R*)-[4,7-ethenylene-spiro[2.4]heptane]-5,6-dicarboxamide], the 50% effective concentration (EC50) amounted to 96 nM in assay [1] and 1300 nM in assay [2].

Regarding `NCCCCNC(=O)[C@H]1[C@H](C(=O)Nc2ccc(Br)cc2)[C@H]2C=C[C@@H]1C21CC1` (relative stereo) [Example 339, (5R*)—N^5-(4-Aminobutyl)-(6R*)—N^6-(4-bromophenyl)-(4S*,7R*)-[4,7-ethenylene-spiro[2.4]heptane]-5,6-dicarboxamide], the EC50 in assay [1] was determined as 19 nM; in assay [2] it was 1480 nM.

On to `Cc1ccc(NC(=O)[C@H]2[C@H](C(=O)NCCC(N)=O)[C@H]3C=C[C@@H]2C32CC2)nc1` [Example 313, (5R)—N^5-(5-Methyl-pyridin-2-yl)-(6R)—N^6-(3-amino-3-oxopropyl)-(4S,7R)-[4,7-ethenylene-spiro[2.4]heptane]-5,6-dicarboxamide], for which the concentration giving a half-maximal response (EC50) is 330 nM in assay [1] and over 25000 nM in assay [2].

As for `Cc1nonc1CNC(=O)[C@H]1[C@H](C(=O)NCCCCN2CCCC2)[C@H]2C=C[C@@H]1C21CC1` (racemic) [Example 356, (5R*)—N^5-[(4-Methyl-1,2,5-oxadiazol-3-yl)methyl]-(6R*)—N^6-(4-pyrrolidino-butyl)-(4S*,7R*)-[4,7-ethenylene-spiro[2.4]heptane]-5,6-dicarboxamide], the EC50 is 7710 nM in assay [1] and 948 nM in assay [2].

For the compound `Cc1cc(Br)ccc1NC(=O)[C@H]1[C@H](C(=O)NCCCCN2CCCC2)[C@H]2C=C[C@@H]1C21CC1` [Example 296, (5R)—N^5-(4-Bromo-2-methylphenyl)-(6R)—N^6-(4-pyrrolidino-butyl)-(4S,7R)-[4,7-ethenylene-spiro[2.4]heptane]-5,6-dicarboxamide], the EC50 is 275 nM in assay [1] and 193 nM in assay [2].

In the case of `NCC1CCN(C(=O)[C@H]2[C@H](C(=O)Nc3ncc(Br)s3)[C@@H]3C=C[C@H]2C32CC2)CC1` [Example 325, (5R)—N^5-(5-Bromo-thiazol-2-yl)-(6R)—N^6,N^6-(3-(aminomethyl)pentane-1,5-diyl)-(4S,7R)-[4,7-ethenylene-spiro[2.4]heptane]-5,6-dicarboxamide], the EC50 in assay [1] was 19 nM; in assay [2], over 14100 nM.

For `O=C(NCCCCCN1CCCC1)[C@H]1[C@H](C(=O)Nc2ccc(Br)cc2)[C@@H]2C=C[C@H]1C21CC1` [Example 221, (5R)—N^5-(4-Bromophenyl)-(6R)—N^6-(5-pyrrolidino-pentyl)-(4S,7R)-[4,7-ethenylene-spiro[2.4]heptane]-5,6-dicarboxamide], the EC50 in assay [1] worked out at 0.66 nM; in assay [2] it was 41 nM.

Consider `O=C(NCCCCN1CCCC1)[C@H]1[C@H](C(=O)NCCc2ccc3c(c2)OCO3)[C@@H]2C=C[C@H]1C21CC1` (racemic) [Example 383, (5R*)—N^5-(2-(Benzo[d][1,3]dioxol-5-yl)ethyl)-(6R*)—N^6-(4-pyrrolidino-butyl)-(4S*,7R*)-[4,7-ethenylene-spiro[2.4]heptane]-5,6-dicarboxamide], for which the EC50 in assay [1] came to 7680 nM; in assay [2], 29 nM.

For `O=C(NCCCN1CCOCC1)[C@H]1[C@H](C(=O)Nc2ccc(Br)cc2)[C@@H]2C=C[C@H]1C21CC1` (racemic) [Example 87, (5R*)—N^5-(4-Bromophenyl)-(6R*)—N^6-(3-morpholino-propyl)-(4S*,7R*)-[4,7-ethenylene-spiro[2.4]heptane]-5,6-dicarboxamide], the EC50 in assay [1] is 156 nM; in assay [2], 2200 nM.

For `NC(=O)CCNC(=O)[C@H]1[C@H](C(=O)Nc2ccc(Br)nc2)[C@@H]2C=C[C@H]1C21CC1` [Example 242, (5R)—N^5-(2-Bromo-pyrid-5-yl)-(6R)—N^6-(3-amino-3-oxopropyl)-(4S,7R)-[4,7-ethenylene-spiro[2.4]heptane]-5,6-dicarboxamide], the EC50 is 5.9 nM in assay [1] and 6140 nM in assay [2].

In the case of `Cc1nc2cc(NC(=O)[C@H]3[C@H](C(=O)NCCCCN4CCCC4)[C@H]4C=C[C@@H]3C43CC3)ccc2s1` (racemic) [Example 138, (5R*)—N^5-(2-Methyl-benzothiazol-5-yl)-(6R*)—N^6-(4-pyrrolidin-1-yl-butyl)-(4S*,7R*)-[4,7-ethenylene-spiro[2.4]heptane]-5,6-dicarboxamide], the values for the EC50 in assay [1] and in assay [2] were 570 nM and 332 nM, respectively.

Turning to `COCCNC(=O)[C@H]1[C@H](C(=O)Nc2ncc(Br)s2)[C@@H]2C=C[C@H]1C21CC1` (racemic) [Example 276, (5R*)—N^5-(5-Bromothiazol-2-yl)-(6R*)—N^6-(2-methoxy-ethyl)-(4S*,7R*)-[4,7-ethenylene-spiro[2.4]heptane]-5,6-dicarboxamide], the EC50 in assay [1] is 44 nM; in assay [2], over 25000 nM.

As for `CN(C)CCCNC(=O)[C@H]1[C@H](C(=O)Nc2ncc(Br)s2)[C@@H]2C=C[C@H]1C21CC1` (racemic) [Example 277, (5R*)—N^5-(5-Bromothiazol-2-yl)-(6R*)—N^6-(3-dimethylamino-propyl)-(4S*,7R*)-[4,7-ethenylene-spiro[2.4]heptane]-5,6-dicarboxamide], the 50% effective concentration (EC50) in assay [1] came to 61 nM; in assay [2], 2010 nM.

For `CCOCCCNC(=O)[C@H]1[C@H](C(=O)NCc2ccc(Br)cc2)[C@@H]2C=C[C@H]1C21CC1` (racemic) [Example 263, (5R*)—N^5-(4-Bromophenyl-methyl)-(6R*)—N^6-(3-ethoxy-propyl)-(4S*,7R*)-[4,7-ethenylene-spiro[2.4]heptane]-5,6-dicarboxamide], the EC50 in assay [1] came out at 899 nM; in assay [2] it was 4460 nM.

As for `NC(=O)CCNC(=O)[C@H]1[C@H](C(=O)Nc2ccc(Cl)nc2)[C@@H]2C=C[C@H]1C21CC1` [Example 281, (5R)—N^5-(2-Chloropyrid-5-yl)-(6R)—N^6-(3-amino-3-oxopropyl)-(4S,7R)-[4,7-ethenylene-spiro[2.4]heptane]-5,6-dicarboxamide], the EC50 in assay [1] was 31 nM; in assay [2], over 25000 nM.

In the case of `CCCN(CC1CC1)C(=O)[C@H]1[C@H](C(=O)Nc2ccc(Br)cc2)[C@@H]2C=C[C@H]1C21CC1` (racemic) [Example 91, (5R*)—N^5-(4-Bromophenyl)-(6R*)—N^6-propyl-N^6-(cyclopropylmethyl)-(4S*,7R*)-[4,7-ethenylene-spiro[2.4]heptane]-5,6-dicarboxamide], the figures for the EC50 in assay [1] and in assay [2] were 200 nM and 2980 nM, respectively.

Regarding `COc1ccc(NC(=O)C2C(C(=O)NCCCCN3CCCC3)C3C=CC2C32CC2)cc1` (racemic) [Example 115, (5R*)—N^5-(4-Methoxyphenyl)-(6R*)—N^6-(4-pyrrolidin-1-yl-butyl)-(4S*,7R*)-[4,7-ethenylene-spiro[2.4]heptane]-5,6-dicarboxamide], the results for the EC50 in assay [1] and in assay [2] were 2 nM and 204 nM, respectively.

Turning to `O=C(NCCCCN1CCCC1)[C@H]1[C@H](C(=O)NCCc2ccc(Cl)cc2)[C@@H]2C=C[C@H]1C21CC1` [Example 387, (5R)—N^5-(2-(4-Chlorophenyl)ethyl)-(6R)—N^6-(4-pyrrolidino-butyl)-(4S,7R)-[4,7-ethenylene-spiro[2.4]heptane]-5,6-dicarboxamide], the concentration for a half-maximal effect (EC50) in assay [1] amounted to 8270 nM; in assay [2], 26 nM.

Take `Cc1coc(NC(=O)[C@H]2[C@H](C(=O)NCCCCN3CCCC3)[C@H]3C=C[C@@H]2C32CC2)n1` (racemic) [Example 350, (5R*)—N^5-(4-Methyl-oxazol-2-yl)-(6R*)—N^6-(4-pyrrolidino-butyl)-(4S*,7R*)-[4,7-ethenylene-spiro[2.4]heptane]-5,6-dicarboxamide]: the concentration giving a half-maximal response (EC50) in assay [1] came out at 5730 nM; in assay [2], 444 nM.
